Experimental data taken from the C3SDB collision cross section collection.
Where “and” joins values, the source holds several entries; their conditions need not be identical. Identical values can stand only once.

Key:
[1] = instrument: DT, single field
[2] = instrument: DT, single field, calibrated with Agilent tune mix (Agilent)
[3] = instrument: TW, calibrated with phosphatidylcholines (ESI+) and phosphatidylethanolamines (ESI-)
[4] = instrument: DT, stepped-field
[5] = [M+Na]+; instrument: DT; stepped-field

CCCCCCCCCCCCCCCCCCCC(=O)O[C@@H](CO)COC(=O)CCCCCCCCCCC [DG(32:0)]
collision cross section (N2) ([1]; [M+NH4]+): 255.58 Å²

CCCCC/C=C\C/C=C\CCCCCCCC(=O)O[C@@H](CO)COC(=O)CCCCCCCCCCCCC [DG(32:2)]
collision cross section (N2) ([1]; [M+NH4]+): 253.01 Å²

CCCCCC/C=C\CCCCCCCC(=O)OC[C@H](CO)OC(=O)CCCCCCCCCCCCCCCCC [DG(34:1)]
collision cross section (N2) ([2]; [M+NH4]+): 261.1 Å²
collision cross section (N2) ([1]; [M+NH4]+): 260.44 Å² and 262.5 Å²

CCCCC/C=C\C/C=C\CCCCCCCCCCCC(=O)O[C@@H](CO)COC(=O)CCCCCCCCCCCCC [DG(36:2)]
collision cross section (N2) ([1]; [M+NH4]+): 266.09 Å²

CC/C=C\C/C=C\C/C=C\C/C=C\C/C=C\C/C=C\CCC(=O)O[C@@H](CO)COC(=O)CCCCCCC/C=C\CCCC [DG(36:7)]
collision cross section (N2) ([1]; [M+NH4]+): 252.3 Å²

CC/C=C\C/C=C\C/C=C\C/C=C\C/C=C\CCCC(=O)O[C@@H](CO)COC(=O)CCCCCCC/C=C\C/C=C\CCCC [DG(37:7)]
collision cross section (N2) ([1]; [M+NH4]+): 256.98 Å²

CCCCC/C=C\C/C=C\C/C=C\C/C=C\CCCCCC(=O)O[C@@H](CO)COC(=O)CCCC/C=C\C/C=C\C/C=C\CCCCC [DG(40:7)]
collision cross section (N2) ([1]; [M+NH4]+): 266.8 Å² and 270.46 Å² and 267.84 Å²

CCCCCCCCCCCCCCCCCCCCCCC=CCC(=O)OC[C@H](CO)OC(=O)CC=CCCCCCCCCCCCCCCCCCCCCCC [DG(52:2)]
collision cross section (N2) ([1]; [M+NH4]+): 319.62 Å²

CCCCCCCCCCCCCCCCCCC(=O)O[C@H](COC(=O)CCCCCCCCCCC)COP(=O)([O-])OCC[N+](C)(C)C [PC(31:0)]
collision cross section (N2) ([1]; [M+H]+): 278.69 Å²

CCC/C=C\C/C=C\CCCCCCCCCC(=O)O[C@H](COC(=O)CCCCCCCCCCCCC)COP(=O)([O-])OCC[N+](C)(C)C [PC(32:2)]
collision cross section (N2) ([2]; [M+H]+): 276.8 Å²
collision cross section (N2) ([3]; [M+H]+): 274 Å²
collision cross section (N2) ([4]; [M+K]+): 289.2 Å²

CCCCCCCCCCCCCCCCCCCCC(=O)O[C@H](COC(=O)CCCCCCCCCCC)COP(=O)([O-])OCC[N+](C)(C)C [PC(33:0)]
collision cross section (N2) ([1]; [M+Na]+): 284.2 Å²

CCCC/C=C\CCCCCCCC(=O)OC[C@H](COP(=O)([O-])OCC[N+](C)(C)C)OC(=O)CCCCCCCCCCCCCCCCCC [PC(33:1)]
collision cross section (N2) ([1]; [M+H]+): 281.49 Å²
collision cross section (N2) ([1]; [M+Na]+): 283.22 Å²

CCCCCCCCCC/C=C\CCCCCCCCCC(=O)O[C@H](COC(=O)CCCCCCCCCCC)COP(=O)(O)OCCN [PE(34:1)]
collision cross section (N2) ([2]; [M+H]+): 274.7 Å²
collision cross section (N2) ([2]; [M+Na]+): 281.2 Å²
collision cross section (N2) ([2]; [M-H]-): 263.5 Å²
collision cross section (N2) ([3]; [M+H]+): 272.8 Å²
collision cross section (N2) ([3]; [M-H]-): 262.8 Å²
collision cross section (N2) ([4]; [M+Na]+): 281.3 Å²

CCCCC/C=C\C/C=C\CCCCCCCCCC(=O)O[C@H](COC(=O)CCCCCCCCCCCCC)COP(=O)(O)OCCN [PE(34:2)]
collision cross section (N2) ([2]; [M+H]+): 272.7 Å²
collision cross section (N2) ([2]; [M+Na]+): 277.6 Å²
collision cross section (N2) ([2]; [M-H]-): 262 Å²
collision cross section (N2) ([3]; [M+H]+): 269.9 Å²
collision cross section (N2) ([4]; [M+Na]+): 278.3 Å²

CCCCC/C=C\C/C=C\CCCCCCCCCCCC(=O)O[C@H](COC(=O)CCCCCCCCCCCC)COP(=O)(O)OCCN [PE(35:2)]
collision cross section (N2) ([2]; [M+H]+): 275 Å²
collision cross section (N2) ([2]; [M-H]-): 264.9 Å²
collision cross section (N2) ([4]; [M+K]+): 282.5 Å²
collision cross section (N2) ([4]; [M+Na]+): 281.3 Å²

CCCCC/C=C\C/C=C\C/C=C\CCCCC(=O)OC[C@H](COP(=O)(O)OCCN)OC(=O)CCCCCCCCCCC/C=C\C/C=C\CCCCC [PE(40:5)]
collision cross section (N2) ([2]; [M+H]+): 287.1 Å²
collision cross section (N2) ([2]; [M-H]-): 277.5 Å²
collision cross section (N2) ([3]; [M+H]+): 284.8 Å²
collision cross section (N2) ([3]; [M-H]-): 276.2 Å²
collision cross section (N2) ([4]; [M+Na]+): 294.8 Å²

CC/C=C\C/C=C\C/C=C\C/C=C\C/C=C\CCCC(=O)OC[C@H](COP(=O)(O)OCCN)OC(=O)CCC/C=C\C/C=C\C/C=C\C/C=C\CCCCC [PE(40:9)]
collision cross section (N2) ([2]; [M+Na]+): 283.1 Å²
collision cross section (N2) ([4]; [M+Na]+): 286.6 Å²

CC/C=C\C/C=C\C/C=C\C/C=C\C/C=C\C/C=C\CCC(=O)O[C@H](COC(=O)CCCCCCCCC/C=C\C/C=C\CCCCC)COP(=O)(O)OCCN [PE(42:8)]
collision cross section (N2) ([3]; [M+H]+): 290 Å²
collision cross section (N2) ([4]; [M+Na]+): 297.3 Å²

CC/C=C\C/C=C\C/C=C\C/C=C\C/C=C\C/C=C\CCC(=O)OC[C@H](COP(=O)(O)OC[C@H](N)C(=O)O)OC(=O)CCCCC/C=C\C/C=C\C/C=C\C/C=C\CCCCC [PS(44:10)]
collision cross section (N2) ([4]; [M+Na]+): 303.5 Å²
collision cross section (N2) [5]: 296.88 Å²

CCCCCCCCCCCCC=CC[C@@H](O)[C@H](COP(=O)([O-])OCC[N+](C)(C)C)NC(=O)CC=CCCCCCCCCCCCCCC [SM(36:2)]
collision cross section (N2) ([2]; [M+H]+): 286.1 Å²
collision cross section (N2) ([4]; [M+Na]+): 290.9 Å²

CCCCCCCCCCCCC=CC[C@@H](O)[C@H](COP(=O)([O-])OCC[N+](C)(C)C)NC(=O)CC=CCC=CCCCCCCCCCCCCCCCCC [SM(42:3)]
collision cross section (N2) ([2]; [M+HCOO]-): 299.5 Å²
collision cross section (N2) ([2]; [M+H]+): 302 Å²
collision cross section (N2) ([4]; [M+Na]+): 305.6 Å²

CCCCCCCCCCCCC=CC[C@@H](O)[C@H](COP(=O)([O-])OCC[N+](C)(C)C)NC(=O)CCCCCCCCCCCCCCCCCCCCCCCCCC [SM(45:1)]
collision cross section (N2) ([1]; [M+H]+): 315.31 Å²

CCCCCCCCCCCCCCCC(=O)OC[C@@H](COC(=O)CCCCCCCCCCC)OC(=O)CCCCCCCCCCC [TG(40:0)]
collision cross section (N2) ([2]; [M+NH4]+): 285 Å²
collision cross section (N2) ([1]; [M+Na]+): 282.67 Å² and 283.77 Å²

C(OC(=O)CCCCCCCCCCCCC)[C@]([H])(OC(CCCCCCCCCCCCC)=O)COC(CCCCCCCCCCCCC)=O [TG(42:0)]
collision cross section (N2) ([1]; [M+Na]+): 289.67 Å² and 290.31 Å²

CCCC/C=C\CCCCCCCC(=O)O[C@@H](COC(=O)CCCCCCC/C=C\CCCCC)COC(=O)CCCCCCCCCCCC [TG(42:2)]
collision cross section (N2) ([1]; [M+NH4]+): 286.83 Å² and 289.71 Å²
collision cross section (N2) ([1]; [M+Na]+): 285.72 Å² and 288.76 Å²

CCCCC/C=C\C/C=C\CCCCCCCCCC(=O)OC[C@@H](COC(=O)CCCCCCCCCCC)OC(=O)CCCCCCCCCCC [TG(44:2)]
collision cross section (N2) ([2]; [M+NH4]+): 292.9 Å²
collision cross section (N2) ([1]; [M+NH4]+): 294.01 Å² and 295.78 Å² and 296.41 Å²
collision cross section (N2) ([1]; [M+Na]+): 292.91 Å² and 295.34 Å²

CCCCCCCCCCCCCCCCCC(=O)OC[C@@H](COC(=O)CCCCCCCCCCC)OC(=O)CCCCCCCCCCCCCCCCC [TG(48:0)]
collision cross section (N2) ([1]; [M+NH4]+): 310.54 Å² and 314.67 Å² and 312.34 Å²

CCCCCCCC/C=C\CCCCCCCC(=O)OC[C@@H](COC(=O)CCCCCCCCCCC)OC(=O)CCCCCCC/C=C\CCCCCCCC [TG(48:2)]
collision cross section (N2) ([2]; [M+NH4]+): 308.3 Å²
collision cross section (N2) ([1]; [M+NH4]+): 307.53 Å² and 309.7 Å² and 313.52 Å²
collision cross section (N2) ([1]; [M+Na]+): 306.66 Å² and 308.69 Å²

CCCCCCCCC/C=C\CCCCCCCC(=O)OC[C@@H](COC(=O)CCCCCCCCCCC)OC(=O)CCCCCCC/C=C\CCCCCCCCC [TG(50:2)]
collision cross section (N2) ([2]; [M+NH4]+): 315.8 Å²
collision cross section (N2) ([1]; [M+Na]+): 313.04 Å² and 315.16 Å²

CCCCCCCCCCCCCCCCCCC(=O)OC[C@@H](COC(=O)CCCCCCCCCCCC)OC(=O)CCCCCCCCCCCCCCCCCC [TG(51:0)]
collision cross section (N2) ([1]; [M+NH4]+): 324.83 Å² and 327.28 Å²

CC/C=C\C/C=C\C/C=C\C/C=C\C/C=C\C/C=C\CCC(=O)OC[C@@H](COC(=O)CCCCCCCCCCC)OC(=O)CCCCCCC/C=C\CCCCCCCC [TG(52:7)]
collision cross section (N2) ([1]; [M+NH4]+): 313.4 Å²

CCCCCCCCCCCCCCCCCCCC(=O)OC[C@@H](COC(=O)CCCCCCCCCCCC)OC(=O)CCCCCCCCCCCCCCCCCCC [TG(53:0)]
collision cross section (N2) ([1]; [M+NH4]+): 331.32 Å²

CCCCCCCCC/C=C\CCCCCCCC(=O)OC[C@@H](COC(=O)CCCCCCCCCCCCCCC)OC(=O)CCCCCCC/C=C\CCCCCCCCC [TG(54:2)]
collision cross section (N2) ([1]; [M+Na]+): 324.71 Å² and 326.86 Å²

CCCCC/C=C\C/C=C\C/C=C\C/C=C\CCCC(=O)OC[C@@H](COC(=O)CCCCCCC/C=C\CCCCCC)OC(=O)CCCC/C=C\C/C=C\C/C=C\CCCCC [TG(54:8)]
collision cross section (N2) ([1]; [M+NH4]+): 316.06 Å²

CCCCCCCCCCCCCCCCCCCCC(=O)OC[C@@H](COC(=O)CCCCCCCCCCCC)OC(=O)CCCCCCCCCCCCCCCCCCCC [TG(55:0)]
collision cross section (N2) ([1]; [M+NH4]+): 338.57 Å²

CCCCC/C=C\C/C=C\CCCCCCCCCC(=O)OC[C@@H](COC(=O)CCCCCCC/C=C\C/C=C\CCCCC)OC(=O)CCCCCCC/C=C\CCCCCCCCC [TG(57:5)]
collision cross section (N2) ([1]; [M+NH4]+): 334.96 Å²

CC/C=C\C/C=C\C/C=C\C/C=C\C/C=C\CCCCCC(=O)OC[C@@H](COC(=O)CCCCCCCCCCCCCCCCC)OC(=O)CCCCCCC/C=C\C/C=C\CCCCC [TG(58:7)]
collision cross section (N2) ([1]; [M+NH4]+): 331.34 Å² and 332.87 Å²
collision cross section (N2) ([1]; [M+Na]+): 331.1 Å²

CC/C=C\C/C=C\C/C=C\CCCCCCCC(=O)O[C@H](COC(=O)CCCCCCC/C=C\C/C=C\CCCCC)COC(=O)CCCCCCCC/C=C\C/C=C\C/C=C\CCCCC [TG(58:8)]
collision cross section (N2) ([1]; [M+NH4]+): 330.76 Å² and 329.67 Å²

CCCCCCCCC/C=C\CCCCCCCC(=O)OC[C@H](COC(=O)CCCCCCCCCCCCCCCCCCC)OC(=O)CCCCCCCCCCCCCCCCCCC [TG(59:1)]
collision cross section (N2) ([1]; [M+NH4]+): 347.61 Å²

CCCC/C=C\C/C=C\CCCCCCCC(=O)OC[C@H](COC(=O)CCCCCCCCCCCCCCCCCCCCC)OC(=O)CCCCCCCCCCCCCCCCCCC [TG(59:2)]
collision cross section (N2) ([1]; [M+NH4]+): 343.68 Å² and 345.92 Å²

CCCCC/C=C\C/C=C\C/C=C\CCCCCCCCC(=O)OC[C@@H](COC(=O)CCCCCCC/C=C\CCCCCCC)OC(=O)CCCCCCCCC/C=C\CCCCCCCC [TG(59:5)]
collision cross section (N2) ([1]; [M+NH4]+): 338.34 Å² and 341.2 Å²

CC/C=C\C/C=C\C/C=C\C/C=C\C/C=C\C/C=C\CCC(=O)OC[C@@H](COC(=O)CCCCCCC/C=C\CCCCC)OC(=O)CCCCCCCCCCCCCCCCCCCCC [TG(59:7)]
collision cross section (N2) ([1]; [M+NH4]+): 337.86 Å²
